Experimental data published in ChEMBL document CHEMBL4145548, “Pyrimidine-chloroquinoline hybrids: Synthesis and antiplasmodial activity” (Eur J Med Chem, 2018).
≈ marks a conversion by molar mass, not a printed value. Calls of active or inactive are those of the source. No cut-off for these calls is given here.

Key:
[1] = tested on: Plasmodium falciparum; experiment: Potency index, ratio of chloroquine IC50 to compound IC50 for antiplasmodial activity against chloroquine-resistant Plasmodium falciparum Dd2; type: functional
[2] = Aqueous solubility in pH 7.4 PBS buffer after 24 hrs by HPLC analysis; type: physicochemical
[3] = n-octanol-phosphate buffer distribution coefficient, log D of the compound at pH 7.4 after 1 hr by HPLC method; type: physicochemical
[4] = Solubility in n-octanol at pH 7.4 after 24 hrs by HPLC analysis; type: physicochemical
[5] = tested on: Plasmodium falciparum; experiment: microbe, parasite or virus in culture; conditions: NF54
Description: Antiplasmodial activity against chloroquine-sensitive Plasmodium falciparum NF54 by LDH release assay

[6] = tested on: Vero; experiment: Cytotoxicity against African green monkey Vero cells assessed as reduction in cell viability by MTT assay; type: cell-based; conditions: Chlorocebus sabaeus
[7] = tested on: Calf thymus DNA; experiment: Binding affinity to calf thymus DNA assessed as change in melting temperature at DNA to compound ratio of 5:1; type: nucleic-acid assay; conditions: Bos taurus
[8] = tested on: Heme; experiment: Binding affinity to monomeric heme at 5 umol by HRMS mass spectrum analysis
[9] = tested on: DNA; experiment: Binding affinity to Escherichia coli pUC18 DNA by UV-visible absorption spectral analysis; type: nucleic-acid assay
[10] = tested on: Calf thymus DNA; experiment: Binding affinity to calf thymus DNA at 66 uM by UV-visible absorption spectral analysis; type: nucleic-acid assay; conditions: Bos taurus
[11] = tested on: Heme; experiment: Binding affinity to monomeric heme assessed as decrease in soret band intensity up to 40 uM at pH 5.6 to 7.4 by titration-based UV-vis spectrophotometric analysis
[12] = tested on: Calf thymus DNA; experiment: Binding affinity to calf thymus DNA at 17.1 uM by fluorimetry analysis; type: nucleic-acid assay; conditions: Bos taurus
[13] = tested on: Heme; experiment: Binding affinity to monomeric heme at pH 7.4 by titration-based UV-vis spectrophotometric analysis
[14] = tested on: Heme; experiment: Binding affinity to monomeric heme by 1H NMR method
[15] = tested on: mu-oxodimeric heme; experiment: Binding affinity to mu-oxodimeric heme assessed as decrease in soret band intensity up to 26.7 uM at pH 5.8 by titration-based UV-vis spectrophotometric analysis
[16] = tested on: mu-oxodimeric heme; experiment: Binding affinity to mu-oxodimeric heme at pH 5.8 by titration-based UV-vis spectrophotometric analysis
[17] = tested on: Heme; experiment: Binding affinity to monomeric heme at pH 5.6 by titration-based UV-vis spectrophotometric analysis
[18] = tested on: Plasmodium falciparum; experiment: microbe, parasite or virus in culture; conditions: Dd2
Description: Antiplasmodial activity against chloroquine-resistant Plasmodium falciparum Dd2 by LDH release assay

[19] = in vitro; conditions: monkey, Vero cells
Description: Selectivity index, ratio of IC50 for African green monkey Vero cells to IC50 for chloroquine-sensitive Plasmodium falciparum NF54

[20] = tested on: Calf thymus DNA; experiment: Binding affinity to calf thymus DNA assessed as association constant by Benesi-Hildebrand equation analysis; type: nucleic-acid assay; conditions: Bos taurus
[21] = tested on: DNA; experiment: Binding affinity to Escherichia coli pUC18 DNA at 17.1 uM by fluorimetry analysis; type: nucleic-acid assay
[22] = tested on: unidentified; experiment: Inhibition of acetate buffer-initiated beta-hematin polymerization at 1.2 equiv measured after 1 hr by FT-IR spectroscopic method
[23] = tested on: Calf thymus DNA; experiment: Binding affinity to calf thymus DNA by UV-visible absorption spectral analysis; type: nucleic-acid assay; conditions: Bos taurus

SMILES	Ratio IC50 [1]	solubility at 24 h [2]	logD at 1 h [3]	solubility at 24 h [4]	IC50 [5]	IC50 [6]	further results
Clc1ccc2c(NCCCCCCCCCCNc3nccc(Cl)n3)ccnc2c1	3.2	–	–	–	–	–	–
Cc1nc(OCc2cn(-c3ccnc4cc(Cl)ccc34)nn2)nc(-c2ccccc2[N+](=O)[O-])c1C(=O)OC(C)C	–	2.93 µM (≈ 1.64 µg/mL)	1.1	37.4 µM (≈ 20.9 µg/mL)	16100 nM	–	–
CC[C@H]1CN2CCc3cc(OC)c(OC)cc3[C@@H]2C[C@@H]1C[C@H]1NCCc2cc(OC)c(OC)cc21 [EMETINE]	–	–	–	–	–	176 nM	–
CCOC(=O)c1c(C)nc(OCc2cn(-c3ccnc4cc(Cl)ccc34)nn2)nc1C	–	7.18 µM (≈ 3.15 µg/mL)	0.39	17.8 µM (≈ 7.8 µg/mL)	84200 nM	–	–
Cc1nc(OCc2cn(-c3ccnc4cc(Cl)ccc34)nn2)nc(-c2ccc([N+](=O)[O-])cc2)c1C(=O)OC(C)C	–	4.54 µM (≈ 2.54 µg/mL)	1.12	60.5 µM (≈ 33.9 µg/mL)	7860 nM	–	–
Clc1ccc2c(NCCCCNc3nccc(Cl)n3)ccnc2c1	3.2	–	–	–	–	–	–
Clc1ccc2c(NCCNc3nccc(Cl)n3)ccnc2c1	3.2	–	–	–	–	–	–
Clc1ccc2c(NCCCNc3nccc(N4CCCC4)n3)ccnc2c1	3.2	–	–	–	–	–	–
Clc1ccc2c(NCCCCCCCCNc3ccnc(Cl)n3)ccnc2c1	3.2	–	–	–	–	–	–
Clc1ccc2c(NCCCNc3nccc(N4CCNCC4)n3)ccnc2c1	3.2	–	–	–	–	–	–
C[C@H]1[C@H](OC(=O)CCC(=O)O)O[C@@H]2O[C@@]3(C)CC[C@H]4[C@H](C)CC[C@@H]1[C@@]24OO3 [ARTESUNATE]	–	–	–	–	< 5200 nM	–	–
Cc1nccc(NCCNc2ccnc3cc(Cl)ccc23)n1	3.2	–	–	–	–	–	–
CCN(CC)CCCC(C)Nc1ccnc2cc(Cl)ccc12 (stereo not given)	–	–	–	–	–	–	ΔTm [7]: 4 °C
CCOC(=O)c1c(C)nc(OCc2cn(-c3ccnc4cc(Cl)ccc34)nn2)nc1-c1ccccc1	–	5.47 µM (≈ 2.74 µg/mL)	1.08	66.2 µM (≈ 33.2 µg/mL)	12200 nM	–	–
COC(=O)c1c(C)nc(OCc2cn(CCNc3ccnc4cc(Cl)ccc34)nn2)nc1-c1ccccc1	–	11.3 µM (≈ 5.99 µg/mL)	0.58	44.7 µM (≈ 23.7 µg/mL)	10400 nM	–	–
Cc1nc(OCc2cn(CCCNc3ccnc4cc(Cl)ccc34)nn2)nc(-c2ccc([N+](=O)[O-])cc2)c1C(=O)OC(C)C	–	0.55 µM (≈ 0.339 µg/mL)	1.43	14.9 µM (≈ 9.18 µg/mL)	48 nM	15200 nM	Activity [8]: Active; log K [9]: 3.92; Activity [10]: Active; Activity [11]: Active; Activity [12]: Active; log K [13]: 4.68; Activity [14]: Active; Activity [15]: Active; log K [16]: 5.43; log K [17]: 4.27; IC50 [18]: 4590 nM; ΔTm [7]: 2.5 °C; selectivity ratio [19]: 318; log K [20]: 2.29; Activity [21]: Active; inhibition [22]: Active; log K [23]: 3.74
Clc1ccnc(N2CCOCC2)n1	3.2	–	–	–	–	–	–
Clc1ccc2c(NCCCNc3nccc(N4CCCCC4)n3)ccnc2c1	3.2	–	–	–	–	–	–
Cc1nc(OCc2cn(-c3ccnc4cc(Cl)ccc34)nn2)nc(-c2ccccc2)c1C(=O)OC(C)C	–	1.78 µM (≈ 0.917 µg/mL)	1.46	52.5 µM (≈ 27 µg/mL)	14000 nM	–	–

SMILES	Ratio IC50 [1]	solubility at 24 h [2]	logD at 1 h [3]	solubility at 24 h [4]	IC50 [5]	IC50 [6]	further results
Cc1nc(OCc2cn(CCCNc3ccnc4cc(Cl)ccc34)nn2)nc(-c2ccccc2)c1C(=O)OC(C)C	–	1.21 µM (≈ 0.692 µg/mL)	1.72	63.5 µM (≈ 36.3 µg/mL)	330 nM	28500 nM	IC50 [18]: 610 nM; selectivity ratio [19]: 86.4
Clc1ccc2c(NCCCNc3nccc(N4CCOCC4)n3)ccnc2c1	3.2	–	–	–	–	–	–
CCOC(=O)c1c(C)nc(OCc2cn(CCCNc3ccnc4cc(Cl)ccc34)nn2)nc1-c1ccccc1	–	3.11 µM (≈ 1.74 µg/mL)	1.19	48.3 µM (≈ 27 µg/mL)	890 nM	153000 nM	IC50 [18]: 1370 nM; selectivity ratio [19]: 172
Cc1nc(OCc2cn(CCNc3ccnc4cc(Cl)ccc34)nn2)nc(-c2ccccc2)c1C(=O)OC(C)C	–	3.21 µM (≈ 1.79 µg/mL)	1.21	53.1 µM (≈ 29.6 µg/mL)	640 nM	149000 nM	IC50 [18]: 2000 nM; selectivity ratio [19]: 232
Clc1ccc2c(NCCCCCCCNc3nccc(Cl)n3)ccnc2c1	3.2	–	–	–	–	–	–
Clc1ccc2c(NCCCNc3ccnc(N4CCOCC4)n3)ccnc2c1	3.2	–	–	–	–	–	–
Cc1nc(OCc2cn(CCNc3ccnc4cc(Cl)ccc34)nn2)nc(-c2ccc([N+](=O)[O-])cc2)c1C(=O)OC(C)C	–	7.03 µM (≈ 4.24 µg/mL)	0.88	54.4 µM (≈ 32.8 µg/mL)	180 nM	150000 nM	IC50 [18]: 990 nM; selectivity ratio [19]: 833
Clc1ccc2c(NCCCCCCCCNc3nccc(Cl)n3)ccnc2c1	3.2	–	–	–	–	–	–
COC(=O)c1c(C)nc(OCc2cn(CCCNc3ccnc4cc(Cl)ccc34)nn2)nc1-c1ccccc1	–	5.64 µM (≈ 3.07 µg/mL)	0.78	34.2 µM (≈ 18.6 µg/mL)	1010 nM	156000 nM	IC50 [18]: 1650 nM; selectivity ratio [19]: 154
Clc1ccc2c(NCCCOc3nccc(Cl)n3)ccnc2c1	3.2	–	–	–	–	–	–
CCOC(=O)c1c(C)nc(OCc2cn(CCCNc3ccnc4cc(Cl)ccc34)nn2)nc1C	–	8.01 µM (≈ 3.97 µg/mL)	0.42	21.2 µM (≈ 10.5 µg/mL)	700 nM	> 201000 nM	IC50 [18]: 1110 nM; selectivity ratio [19]: > 287
CCOC(=O)c1c(C)nc(OCc2cn(CCNc3ccnc4cc(Cl)ccc34)nn2)nc1-c1ccccc1	–	3.3 µM (≈ 1.8 µg/mL)	0.81	21.7 µM (≈ 11.8 µg/mL)	1490 nM	149000 nM	IC50 [18]: 2520 nM; selectivity ratio [19]: 100
Cc1nc(OCc2cn(CCCNc3ccnc4cc(Cl)ccc34)nn2)nc(-c2ccccc2[N+](=O)[O-])c1C(=O)OC(C)C	–	0.58 µM (≈ 0.358 µg/mL)	1.31	12.1 µM (≈ 7.49 µg/mL)	600 nM	23400 nM	IC50 [18]: 860 nM; selectivity ratio [19]: 38.9
Clc1ccc2c(NCCCNc3ccnc(N4CCCCC4)n3)ccnc2c1	3.2	–	–	–	–	–	–
COC(=O)c1c(C)nc(OCc2cn(-c3ccnc4cc(Cl)ccc34)nn2)nc1-c1ccccc1	–	3.31 µM (≈ 1.61 µg/mL)	0.69	16.3 µM (≈ 7.96 µg/mL)	15800 nM	–	–
Clc1ccc2c(NCCCNc3ccnc(Cl)n3)ccnc2c1	3.2	–	–	–	–	–	–
Cc1nc(OCc2cn(CCNc3ccnc4cc(Cl)ccc34)nn2)nc(-c2ccccc2[N+](=O)[O-])c1C(=O)OC(C)C	–	2.3 µM (≈ 1.39 µg/mL)	0.86	16.7 µM (≈ 10.1 µg/mL)	530 nM	145000 nM	IC50 [18]: 1080 nM; selectivity ratio [19]: 274
CCOC(=O)c1c(C)nc(OCc2cn(CCNc3ccnc4cc(Cl)ccc34)nn2)nc1C	–	19.1 µM (≈ 9.21 µg/mL)	0.27	35.6 µM (≈ 17.2 µg/mL)	2490 nM	> 207000 nM	IC50 [18]: 8140 nM; selectivity ratio [19]: > 83
Clc1ccc2c(NCCCCCCCCCCCCNc3nccc(Cl)n3)ccnc2c1	3.2	–	–	–	–	–	–
